Measurements as given in patent US9278874B2, “Prevention of starch degradation in pulp, paper or board making processes using zinc ions and an oxidizing biocide” (KEMIRA OYJ, priority 2011, dated 2016).

Columns and labels:
Assay type in all cases: cell-based
[1] = tested on: starch degrading bacteria; experiment: Prevention of starch degradation in head box stock using chlorine dioxide (ClO2) and zinc; remaining starch by iodine staining; settings: for Prevention of starch degradation (in words): 10 mg/l zinc or 5-20 mg/l ClO2 alone; for Starch concentration 4 h: contact time 4 h; for Starch concentration 24 h: contact time 24 h
Procedure: (§1) Prevention of starch degradation was studied using an oxidizing biocide (chlorine dioxide, ClO2) and zinc. Head box stock from packaging board mill, stored at +4° C. after collecting, was amended with 0.8 g/l cooked starch and incubated overnight at 45° C. with 150 rpm shaking to induce the growth of starch degrading bacteria. The stock was divided into 30 ml portions and appropriate amounts of zinc (Zn^2+ from zinc chloride) and ClO2 were added together with a new starch addition (400 mg/l). After 4 h and 24 h incubation (+45° C., 150 rpm) the remaining starch was quantified using iodine staining (Lugol-solution) at 590 nm. An external standard curve was used to convert absorbance values into starch amounts.

[2] = tested on: starch degrading bacteria; experiment: Prevention of starch degradation in head box stock using glutaraldehyde and zinc; remaining starch by iodine staining; settings: for Prevention of starch degradation (in words): 10 mg/l zinc or 5-30 mg/l glutaraldehyde alone; for Starch concentration 4 h: contact time 4 h; for Starch concentration 24 h: contact time 24 h
Procedure: as §1, with “a non-oxidizing” for “an oxidizing”, “(glutaraldehyde)” for “(chlorine dioxide, ClO2)”, “glutaraldehyde” for “ClO2”

[3] = tested on: starch degrading bacteria; experiment: Prevention of starch degradation in head box stock using monochloramine (MCA) and zinc; remaining starch by iodine staining; settings: for Prevention of starch degradation (in words): 10 mg/l zinc or MCA alone; for Starch concentration 4 h: contact time 4 h; for Starch concentration 24 h: contact time 24 h
Procedure: as §1, with “(monochloramine, MCA)” for “(chlorine dioxide, ClO2)”, “MCA” for “ClO2”

[4] = tested on: starch degrading bacteria; experiment: Prevention of starch degradation in head box stock using performic acid (PFA) and zinc; remaining starch by iodine staining; settings: for Prevention of starch degradation (in words): 10 mg/l zinc or 20-120 mg/l PFA alone; for Starch concentration 4 h: contact time 4 h; for Starch concentration 24 h: contact time 24 h
Procedure: as §1, with “(performic acid, PFA)” for “(chlorine dioxide, ClO2)”, “PFA” for “ClO2”

[5] = PFA 11 mg/l (active ingredient)
[6] = PFA 16 mg/l (active ingredient)
[7] = Zn 10 mg/l (mg Zn2+ per l), 400 mg/l starch added

[O][Cl+][O-] [ClO2, chlorine dioxide]
Prevention of starch degradation (in words) ([1]; 4 h): prevented most of the starch degradation | Prevention of starch degradation (in words) ([1]; 24 h): did not have marked effect | Starch concentration 4 h ([1]; ClO2 5 mg/l): 128 mg/L | Starch concentration 24 h ([1]; ClO2 5 mg/l): 5 mg/L | Starch concentration 4 h ([1]; ClO2 9 mg/l): 153 mg/L | Starch concentration 24 h ([1]; ClO2 9 mg/l): 12 mg/L | Starch concentration 4 h ([1]; ClO2 14 mg/l): 197 mg/L | Starch concentration 24 h ([1]; ClO2 14 mg/l): 13 mg/L | Starch concentration 4 h ([1]; ClO2 20 mg/l): 227 mg/L | Starch concentration 24 h ([1]; ClO2 20 mg/l): 19 mg/L

O=CCCCC=O [GL, glutaraldehyde]
Prevention of starch degradation (in words) ([2]; 4 h): prevented some of the starch degradation | Prevention of starch degradation (in words) ([2]; 24 h): did not have marked effect | Starch concentration 4 h ([2]; GL 5 mg/l (active substance)): 85 mg/L | Starch concentration 24 h ([2]; GL 5 mg/l (active substance)): 3 mg/L | Starch concentration 4 h ([2]; GL 10 mg/l (active substance)): 103 mg/L | Starch concentration 24 h ([2]; GL 10 mg/l (active substance)): 5 mg/L | Starch concentration 4 h ([2]; GL 20 mg/l (active substance)): 96 mg/L | Starch concentration 24 h ([2]; GL 20 mg/l (active substance)): 4 mg/L | Starch concentration 4 h ([2]; GL 30 mg/l (active substance)): 93 mg/L | Starch concentration 24 h ([2]; GL 30 mg/l (active substance)): 6 mg/L

NCl [MCA, monochloramine]
Prevention of starch degradation (in words) ([3]; 4 h): prevented most of the starch degradation | Prevention of starch degradation (in words) ([3]; 24 h): did not have any effect | Starch concentration 4 h ([3]; MCA 10 mg/l (active chlorine)): 158 mg/L | Starch concentration 24 h ([3]; MCA 10 mg/l (active chlorine)): 5 mg/L | Starch concentration 4 h ([3]; MCA 20 mg/l (active chlorine)): 189 mg/L | Starch concentration 24 h ([3]; MCA 20 mg/l (active chlorine)): 41 mg/L

O=COO [PFA, performic acid]
Prevention of starch degradation (in words) ([4]; 4 h): prevented most of the starch degradation | Prevention of starch degradation (in words) ([4]; 24 h): did not have marked effect | Starch concentration 4 h ([4]; PFA 3 mg/l (active ingredient)): 114 mg/L | Starch concentration 24 h ([4]; PFA 3 mg/l (active ingredient)): 3 mg/L | Starch concentration 4 h ([4]; PFA 5 mg/l (active ingredient)): 157 mg/L | Starch concentration 24 h ([4]; PFA 5 mg/l (active ingredient)): 3 mg/L | Starch concentration 4 h [4, 5]: 208 mg/L | Starch concentration 24 h [4, 5]: 5 mg/L | Starch concentration 4 h [4, 6]: 215 mg/L | Starch concentration 24 h [4, 6]: 11 mg/L

[Cl-].[Cl-].[Zn+2] [Zn, zinc chloride]
Prevention of starch degradation (in words) ([3]; 4 h): prevented most of the starch degradation | Prevention of starch degradation (in words) ([3]; 24 h): did not have any effect | Starch concentration 4 h [3, 7]: 177 mg/L | Starch concentration 24 h [3, 7]: 8 mg/L | Prevention of starch degradation (in words) ([1]; 4 h): prevented most of the starch degradation | Prevention of starch degradation (in words) ([1]; 24 h): did not have marked effect | Starch concentration 4 h ([1]; Zn 10 mg/l (mg Zn2+ per l)): 219 mg/L | Starch concentration 24 h ([1]; Zn 10 mg/l (mg Zn2+ per l)): 28 mg/L | Prevention of starch degradation (in words) ([4]; 4 h): prevented most of the starch degradation | Prevention of starch degradation (in words) ([4]; 24 h): did not have marked effect | Starch concentration 4 h ([4]; Zn 10 mg/l (mg Zn2+ per l)): 181 mg/L | Starch concentration 24 h ([4]; Zn 10 mg/l (mg Zn2+ per l)): 38 mg/L | Prevention of starch degradation (in words) ([2]; 4 h): prevented some of the starch degradation | Prevention of starch degradation (in words) ([2]; 24 h): did not have marked effect | Starch concentration 4 h ([2]; Zn 10 mg/l (mg Zn2+ per l)): 193 mg/L | Starch concentration 24 h ([2]; Zn 10 mg/l (mg Zn2+ per l)): 21 mg/L
